# In PubChem BioAssay (NCI):
#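 Step 1: Grow cells in 96-well plates. Step 2: Expose to compound for 48 hours at 5 concentrations. Step 3: Interpolate endpoints linearly; if unreached, use highest concentration. TGI marks complete inhibition of growth.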
# Tests used:
# Assay in all cases: growth of human tumour cells (NCI), 48 h
# [1] = tested on: A498 renal
# [2] = tested on: LOX IMVI melanoma
# [3] = tested on: RXF 393 renal
# [4] = tested on: HCT-15 colon
# [5] = tested on: RPMI-8226 leukemia
# [6] = tested on: SK-MEL-28 melanoma
# [7] = tested on: HL-60(TB) leukemia
# [8] = tested on: U251 CNS
# [9] = tested on: CCRF-CEM leukemia
# [10] = tested on: HS 578T breast
# [11] = tested on: SNB-19 CNS
# [12] = tested on: NCI/ADR-RES ovarian
# [13] = tested on: SK-MEL-2 melanoma
# [14] = tested on: HCT-116 colon
# [15] = tested on: SN12C renal
# [16] = tested on: OVCAR-8 ovarian
# [17] = tested on: IGROV1 ovarian
# [18] = tested on: MDA-MB-435
# [19] = tested on: MALME-3M melanoma
# [20] = tested on: MDA-MB-231 breast
# [21] = tested on: OVCAR-4 ovarian
# [22] = tested on: MOLT-4 leukemia
# [23] = tested on: SW-620 colon
# [24] = tested on: ACHN renal
# [25] = tested on: HOP-62 NSCLC
# [26] = tested on: SNB-75 CNS
# [27] = tested on: SF-295 CNS
# [28] = tested on: TK-10 renal
# [29] = tested on: BT-549 breast
# [30] = tested on: UACC-257 melanoma
# [31] = tested on: SK-MEL-5 melanoma
# [32] = tested on: UACC-62 melanoma
# [33] = tested on: OVCAR-5 ovarian
# [34] = tested on: PC-3 prostate
# [35] = tested on: SK-OV-3 ovarian
# [36] = tested on: KM12 colon
# [37] = tested on: SF-539 CNS
# [38] = tested on: EKVX NSCLC
# [39] = tested on: UO-31 renal
# [40] = tested on: M14 melanoma
# [41] = tested on: DU-145 prostate
# [42] = tested on: HOP-92 NSCLC
# [43] = tested on: A549 NSCLC
# [44] = tested on: OVCAR-3 ovarian
# [45] = tested on: CAKI-1 renal
# [46] = tested on: MDA-N
# [47] = tested on: SF-268 CNS
# [48] = tested on: 786-0 renal
# [49] = tested on: T-47D breast
# [50] = tested on: NCI-H226 lung
# [51] = tested on: MCF7 breast
# [52] = tested on: HCC-2998 colon
# [53] = tested on: NCI-H23 lung
# [54] = tested on: COLO 205 colon
# [55] = tested on: HT29 colon
# [56] = tested on: K-562 leukemia
smiles,measurement,setting,value
CC[C@H](C)[C@H](NC(=O)N(CCC#N)CCN(CCN(C(=O)N[C@@H](Cc1ccccc1)C(=O)OC)c1ccccc1)C(=O)N[C@H](C(=O)OC)C(C)C)C(=O)OC,TGI,[1],36.8 µM
same,TGI,[2],37.4 µM
same,TGI,[3],37.8 µM
same,TGI,[4],51.6 µM
same,TGI,[5],29.1 µM
same,TGI,[6],29.7 µM
same,TGI,[7],4.24 µM
same,TGI,[8],36.1 µM
same,TGI,[9],56.1 µM
same,TGI,[10],86.6 µM
same,TGI,[11],35.9 µM
same,TGI,[12],81.7 µM
same,TGI,[13],43.4 µM
same,TGI,[14],36 µM
same,TGI,[15],54.5 µM
same,TGI,[16],65.4 µM
same,TGI,[17],45.9 µM
same,TGI,[18],36.3 µM
same,TGI,[19],35 µM
same,TGI,[20],47.1 µM
same,TGI,[21],62 µM
same,TGI,[22],24.7 µM
same,TGI,[23],64.8 µM
same,TGI,[24],26.7 µM
same,TGI,[25],44.9 µM
same,TGI,[26],43.1 µM
same,TGI,[27],37.9 µM
same,TGI,[28],38.5 µM
same,TGI,[29],44.7 µM
same,TGI,[30],29 µM
same,TGI,[31],38.4 µM
same,TGI,[32],28.6 µM
same,TGI,[33],57.3 µM
same,TGI,[34],47.7 µM
same,TGI,[35],41.2 µM
same,TGI,[36],39.7 µM
same,TGI,[37],49.1 µM
same,TGI,[38],69.2 µM
same,TGI,[39],33.8 µM
same,TGI,[40],44.8 µM
same,TGI,[41],41.2 µM
same,TGI,[42],23.3 µM
same,TGI,[43],> 100 µM
same,TGI,[44],39.7 µM
same,TGI,[45],35.3 µM
same,TGI,[46],31.7 µM
same,TGI,[47],44.4 µM
same,TGI,[48],17.1 µM
same,TGI,[49],47.2 µM
same,TGI,[50],48.8 µM
same,TGI,[51],74.6 µM
same,TGI,[52],39.5 µM
same,TGI,[53],40.1 µM
same,TGI,[54],52.6 µM
Cc1ccsc1/C=N/NC1=NCCN1,TGI,[1],> 100 µM
same,TGI,[2],> 100 µM
same,TGI,[3],> 100 µM
same,TGI,[4],> 100 µM
same,TGI,[5],> 100 µM
same,TGI,[6],> 100 µM
same,TGI,[8],> 100 µM
same,TGI,[9],> 100 µM
same,TGI,[10],> 100 µM
same,TGI,[11],> 100 µM
same,TGI,[12],> 100 µM
same,TGI,[13],> 100 µM
same,TGI,[14],> 100 µM
same,TGI,[15],> 100 µM
same,TGI,[16],> 100 µM
same,TGI,[17],> 100 µM
same,TGI,[18],> 100 µM
same,TGI,[19],> 100 µM
same,TGI,[20],> 100 µM
same,TGI,[21],> 100 µM
same,TGI,[22],> 100 µM
same,TGI,[23],> 100 µM
same,TGI,[24],> 100 µM
same,TGI,[25],> 100 µM
same,TGI,[55],> 100 µM
same,TGI,[26],> 100 µM
same,TGI,[27],> 100 µM
same,TGI,[28],> 100 µM
same,TGI,[29],> 100 µM
same,TGI,[30],> 100 µM
same,TGI,[31],> 100 µM
same,TGI,[32],> 100 µM
same,TGI,[33],> 100 µM
same,TGI,[34],> 100 µM
same,TGI,[35],> 100 µM
same,TGI,[36],> 100 µM
same,TGI,[38],> 100 µM
same,TGI,[39],> 100 µM
same,TGI,[40],> 100 µM
same,TGI,[41],> 100 µM
same,TGI,[42],> 100 µM
same,TGI,[43],> 100 µM
same,TGI,[44],> 100 µM
same,TGI,[56],> 100 µM
same,TGI,[45],> 100 µM
same,TGI,[46],> 100 µM
same,TGI,[47],> 100 µM
same,TGI,[48],> 100 µM
same,TGI,[49],> 100 µM
same,TGI,[50],> 100 µM
same,TGI,[51],> 100 µM
same,TGI,[52],> 100 µM
same,TGI,[53],> 100 µM
same,TGI,[54],> 100 µM
